Values joined by “and” are separate entries in the source; they are usually repeats but may differ in a detail not shown here. Equal values may be shown once.
These molecules were tested against Acetylcholinesterase (Homo sapiens, UniProt P22303).
Acetylcholinesterase, sequence (P22303 whole entry): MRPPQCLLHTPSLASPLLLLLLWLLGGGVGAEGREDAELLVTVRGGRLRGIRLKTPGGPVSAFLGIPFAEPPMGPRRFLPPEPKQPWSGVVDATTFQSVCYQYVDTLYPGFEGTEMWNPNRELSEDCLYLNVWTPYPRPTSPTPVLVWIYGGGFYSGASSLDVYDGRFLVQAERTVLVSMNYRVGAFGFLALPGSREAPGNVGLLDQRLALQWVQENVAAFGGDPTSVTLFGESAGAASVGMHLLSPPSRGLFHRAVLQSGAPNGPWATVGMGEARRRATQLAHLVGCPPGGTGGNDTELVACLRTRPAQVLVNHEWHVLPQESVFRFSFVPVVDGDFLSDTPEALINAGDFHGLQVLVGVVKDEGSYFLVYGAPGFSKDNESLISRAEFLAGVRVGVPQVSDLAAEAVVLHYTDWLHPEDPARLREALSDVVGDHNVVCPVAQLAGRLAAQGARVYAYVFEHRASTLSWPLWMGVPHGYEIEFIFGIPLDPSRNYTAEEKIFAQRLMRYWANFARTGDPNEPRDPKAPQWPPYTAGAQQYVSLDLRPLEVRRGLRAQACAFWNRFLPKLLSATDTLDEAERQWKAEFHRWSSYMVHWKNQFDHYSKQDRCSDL

SMILES | IC50
C=CCC1(OC)OCc2c(OC)c(OC)cc3ccnc1c23 (stereo not drawn) | 100 µM and 99.6 µM
COc1cc2ccnc3c2c(c1OC)COC3(CCCO)OC (stereo not drawn) | 137 µM
C=CCC1(O)OCc2c(OC)c(OC)cc3ccnc1c23 (stereo not drawn) | 174 µM
COc1cc2ccnc3c2c(c1OC)COC3(O)CC(O)CO (stereo not drawn) | 109 µM
COc1cc2cc[n+](C)c3c2c(c1OC)C(Br)OC3=O (stereo not drawn) | 105 µM and 120 µM
COc1cc2ccnc3c2c(c1OC)COC3(CC(O)CO)OC (stereo not drawn) | 96 µM and 95.4 µM
COc1cc2ccnc3c2c(c1OC)COC3=O | 19.6 µM
COc1cc2ccnc3c2c(c1OC)C(Br)OC3=O (stereo not drawn) | 46 µM and 46.3 µM

Reference: ChEMBL document CHEMBL1145264, “Synthesis of tricyclic analogs of stephaoxocanidine and their evaluation as acetylcholinesterase inhibitors” (Bioorg Med Chem Lett, 2005)
